Data: patent US5948793A, “3-pyridyloxymethyl heterocyclic ether compounds useful in controlling neurotransmitter release” (Abbott Laboratories, priority 1995, dated 1999)
Structures can show the parent of a compound that is named as a salt.

Target: neuronal nicotinic cholinergic channel receptors
Assay: [3H]-cytisine displacement binding to neuronal nicotinic cholinergic channel receptors
Type: rat (crude synaptic membranes from whole rat brain)
Settings: Table 2; [3H]-cytisine 1.25 nM, 60 min at 4° C.; dihydrochloride; read-out: Receptor Binding Ki
Experimental: B. Protocol For Determination of Nicotinic Cholinergic Channel Receptor Binding Potencies of Ligands
Binding of [^3 H]-cytisine ([^3 H]-CYT) to nicotinic receptors was accomplished using crude synaptic membrane preparations from whole rat brain (Pabreza et al., Molecular Pharmaol., 1990, 39:9). Washed membranes were stored at -80° C. prior to use. Frozen aliquots were slowly thawed and resuspended in 20 volumes of buffer (containing: 120 mM NaCl, 5 mM KCl, 2 mM MgCl2, 2 mM CaCl2 and 50 mM Tris-Cl, pH 7.4 @4° C.). After centrifuging at 20,000×g for 15 minutes, the pellets were resuspended in 30 volumes of buffer. Homogenate (containing […]) was added to triplicate tubes containing concentrations of test compound and [^3 H]-CYT (1.25 nM) in a final volume of 500 μL. Samples were incubated for 60 minutes at 4° C., then rapidly filtered through Whatman GF/B filters presoaked in 0.5% polyethylimine using 3×4 mL of ice-cold buffer. The filters are counted in 4 mL of Ecolume® (ICN). […] Alternately, data were expressed as a percentage of the total specific binding.

SMILES	Ki [nM]
Cc1ncccc1OC[C@H]1CCN1 [Example 41, 2-methyl-3-(2-(R)-azetidinylmethoxy)pyridine dihydrochloride]	9.9
Cc1ncccc1OC[C@H]1CCN1 [Example 81, 2-methyl-3-(2-(R)-azetidinylmethoxy)pyridine dihydrochloride]	9.3

Same assay, conditions: Table 2; [3H]-cytisine 1.25 nM, 60 min at 4° C.; read-out: Receptor Binding Ki

SMILES	Ki [nM]
Clc1ncccc1OC[C@@H]1CCCN1 [Example 43, 2-chloro-3-(2-(S)-pyrrolidinylmethoxy)pyridine dihydrochloride]	18.6
Cc1ncccc1OC[C@@H]1CCCN1C [Example 53, 2-methyl-3-(1-methyl-2-(S)-pyrrolidinylmethoxy)pyridine dihydrochloride]	28
CN1CC[C@H]1COc1cncc(Br)c1 [Example 68, 3-((1-methyl-2-(S)-azetidinyl)methoxy)-5-bromopyridine dihydrochloride]	4.5
O[C@H]1CN[C@H](COc2cccnc2)C1 [Example 72, 3-((trans-4-hydroxy-2-(S)-pyrrolidinyl)methoxy)pyridine dihydrochloride]	110
CCC[C@H]1CCN(C)[C@H]1COc1cccnc1 (relative stereo) [Example 60, 3-((cis-1-methyl-3-propyl-2-pyrrolidinyl)methoxy)pyridine dihydrochloride]	51
CCc1cncc(OC[C@@H]2CCCN2C)c1 [Example 75, 5-ethyl-3-(1-methyl-2-(S)-pyrrolidinylmethoxy)pyridine dihydrochloride]	0.32
c1cncc(OCC[C@@H]2CCCN2)c1 [Example 102, 3-(2-(2-(S)-pyrrolidinyl)ethoxy)pyridine dihydrochloride]	34.9
Cc1cncc(OC[C@@H]2CCCN2C)c1 [Example 73, 5-methyl-3-(1-methyl-2-(S)-pyrrolidinylmethoxy)pyridine dihydrochloride]	0.48
CN1CC[C@@H]1COc1cccnc1 [Example 63, 3-((1-methyl-2-(R)-azetidinyl)methoxy)pyridine dihydrochloride]	1.4
C[C@@H]1CC[C@@H](COc2cccnc2)N1C [Example 89, 3-((trans-1,5-dimethyl-2-(S)-pyrrolidinyl)methoxy)pyridine hydrochloride]	91.2
CN1CCC[C@@H]1COc1cncc(Br)c1 [Example 56, 5-bromo-3-((1-methyl-2-(R)-pyrrolidinyl)methoxy)pyridine hydrochloride]	9.2
c1cnc(OC[C@@H]2CCN2)cn1 [Example 7, 2-(2-(S)-azetidinylmethoxy)pyrazine dihydrochloride]	0.44
c1cncc(OC[C@H]2CCN2)c1 [Example 62, 3-(2-(R)-azetidinylmethoxy)pyridine dihydrochloride]	0.5
CN1C[C@H](OS(C)(=O)=O)C[C@H]1COc1cccnc1 [Example 87, 3-((trans-4-methanesulfonyloxy-1-methyl-2(S)-pyrrolidinyl)methoxy)pyridine dihydrochloride]	0.11
CN1C[C@@H](C#N)C[C@H]1COc1cccnc1 [Example 90, 3-((cis-4-cyano-1-methyl-2(S)-pyrrolidinyl)methoxy)pyridine dihydrochloride]	18.4
CN1CCC[C@H]1COc1ccc(Cl)nc1 [Example 55, 6-chloro-3-((1-methyl-2-(S)-pyrrolidinyl)methoxy)pyridine dihydrochloride]	0.63

SMILES	Ki [nM]
CN1CCC[C@H]1COc1cncc(N)c1 [Example 94, 5-Amino-3-(1-methyl-2(S)-pyrrolidinylmethoxy)pyridine hydrochloride]	0.5
CN1CC[C@H]1COc1cnc(Cl)c(Cl)c1 [Example 110, 5,6-Dichloro-3-(1-methyl-2-(S)-azetidinylmethoxy)pyridine hydrochloride]	0.75
FC(F)(F)c1cncc(OC[C@H]2CCCN2)c1 [Example 69, 3-(2-(R)-pyrrolidinylmethoxy)-5-trifluoromethylpyridine dihydrochloride]	2.1
Cc1ccc(OC[C@@H]2CCN2)cn1 [Example 40, 6-methyl-3-(2(S)-azetidinylmethoxy)pyridine dihydrochloride]	0.05
CN1CC[C@H]1COc1cncc(Cl)c1 [Example 80, 5-chloro-3-((1-methyl-2-(S)-azetidinyl)methoxy)pyridine dihydrochloride]	1.9
Clc1cncc(OC[C@@H]2CCN2)c1 [Example 39, 5-chloro-3-(2-(S)-azetidinylmethoxy)pyridine dihydrochloride]	0.04
CN1CCC[C@H]1COc1cccnn1 [Example 79, 3-((1-methyl-2-(S)-pyrroidinyl)methoxy)pyridazine dihydrochloride]	42.8
CN1C[C@H](CC#N)C[C@H]1COc1cccnc1 [Example 50, 3-((trans-4-cyanomethyl-1-methyl-2-(S)-pyrrolidinyl)methoxy)pyridine dihydrochloride]	5.6
Clc1ccc(OC[C@@H]2CCCN2)cn1 [Example 45, 3-(2-(S)-pyrrolidinylmethoxy)-6-chloropyridine dihydrochloride]	0.075
CN1C[C@@H](CO)C[C@H]1COc1cccnc1 [Example 48, 3-((cis-4-hydroxymethyl-1-methyl-2-(S)-pyrrolidinyl)methoxy)pyridine dihydrochloride]	30
FC(F)(F)c1cncc(OC[C@@H]2CCN2)c1 [Example 70, 3-(2-(S)-azetidinylmethoxy)-5-trifluoromethylpyridine dihydrochloride]	0.6
CN1CCC[C@H]1CCOc1cccnc1 [Example 103, 3-(2-(1-methyl-2-(S)-pyrrolidinyl)ethoxy)pyridine dihydrochloride]	18.4
Clc1ccc(OC[C@@H]2CCN2)nn1 [Example 85, 3-(2-(S)-azetidinylmethoxy)-6-chloropyridazine hydrochloride]	16
CN1CCC[C@@H]1COc1ccc(Cl)nc1 [Example 51, 3-((1-methyl-2-(R)-pyrrolidinyl)methoxy-6-chloropyridinedihydrochloride]	4.5
CN1C[C@@H](F)C[C@H]1COc1cccnc1 [Example 78, 3-((cis-4-fluoro-1-methyl-2-(S)-pyrrolidinyl)methoxy)pyridine dihydrochloride]	5.77
CN1CCC[C@@H]1COc1cncc(C(F)(F)F)c1 [Example 54, 3-((1-methyl-2-(R)-pyrrolidinyl)methoxy)-5-trifluoromethylpyridine hydrochloride]	78

Same assay, conditions: read-out: Receptor Binding Ki

SMILES	Ki [nM]
Brc1ccncc1OC[C@@H]1CCCN1 [Example 20, 4-bromo-3-(2-(S)-pyrrolidinylmethoxy)pyridine dihydrochloride]	341
Cc1ncccc1OC[C@@H]1CCN1 [Example 29, 2-methyl-3-(2-(S)-azetidinylmethoxy)pyridine dihydrochloride]	1.3
CN1CCC[C@H]1COc1cncc(Br)c1 [Example 28, 5-bromo-3-((1-methyl-2-(S)-pyrrolidinyl)methoxy)pyridine dihydrochloride]	0.23
CN1CCC[C@H]1COc1cnccc1Br [Example 21, 4-bromo-3-((1-methyl-2-(S)-pyrrolidinyl)methoxy)pyridine dihydrochloride]	23
CN1CCC[C@H]1COc1cncc2ccccc12 [Example 32, 4-(1-methyl-2-(S)-pyrrolidinylmethoxy)isoquinoline hydrochloride]	110
CN1CCCCC1COc1cccnc1 (stereo not shown) [Example 26, 3-((1-methyl-2-piperidinyl)methoxy)pyridine oxalate salt]	76
CN1CCC[C@@H]1COc1ccc(Cl)nn1 [Example 5, oxalate]	87
CC(Oc1cccnc1)[C@@H]1CCCN1C (stereo partly drawn) [Example 6, 3-(a-methyl-(1-methyl-2-(S)-pyrrolidinyl)methoxy)pyridine hydrochloride]	6.7

System: nAChR evoked release of [3H]-dopamine, rat striatal slices
Assay: Striatal dopamine release assay (nAChR evoked release of [3H]-dopamine from superfused rat striatal slices)
Type: cell-based, rat (male Sprague-Dawley)
Settings: Table 1; example concentration ** = 1 μM; relative to 100 nM (-)-nicotine
Experimental: The protocol for this procedure follows below.
A. Protocol for Determination of Striatal Dopamine Release.
nAChR evoked release of [ring-2,5,6-^3 H]-dopamine (24.4 Ci/mmol) was measured in superfused rat striatal slices. Striata were dissected from two male Sprague-Dawley rats per experiment and sliced 0.35×0.25 mm by a McIlwain Tissue Chopper (Brinkman Instrument Co., Westbury, N.Y.). After two washes with Krebs-HEPES buffer (137 mM NaCl, 4.7 mM KCl, 1 mM MgSO4, 2.5 mM CaCl2, 1.25 mM NaH2 PO4, 10 mM glucose, 15 mM HEPES-NaOH, pH 7.4, containing 10 μM pargyline and 10 μM ascorbic acid), slices were preincubated for 10 minutes at 37° C. under 95%/5% O2 /CO2. After replacing the buffer, slices were labeled with 100 nM [^3 H]-dopamine for 25 min in Krebs-HEPES at 37° C. Aliquots of slices were placed in 18 superfusion chambers of a Brandel SP2000 superfusion apparatus (Brandel, Gaithersberg, Md.). Following 47 minutes of washout, slices were exposed to agonist at various concentrations for 4 minutes. Antagonists or inhibitors, when present were introduced 4 minutes prior to and during agonist exposure. Collected fractions were counted in 5 mL of Ecolume. Tissue was recovered from superfusion chambers, solubilized with 1 mL of Solvable™ (DuPont-NEN) and counted in 15 mL of Ecolume. Fractional release of [^3 H]-dopamine was calculated from radioactivity above baseline as a fraction of total radioactivity.

SMILES	Dopamine Release relative to Nicotine
CN1CCC[C@H]1COc1cncc(Cl)c1.Cl.Cl [Example 16, 5-chloro-3-((1-methyl-2-(S)-pyrrolidinyl)methoxy)pyridine dihydrochloride]	1.0
